Measurements from patent US9006256B2, “Antitumor agent for thyroid cancer” (Eisai R&D Management Co., Ltd., priority 2006, dated 2015).

Key:
RET = molecular target: T1, RET (Homo sapiens, UniProt P07949, C634W); assay: RET phosphorylation in tumor tissue of model for subcutaneous transplantation of TT; assay type: in vivo, nude mouse; conditions: oral, 10, 30 or 100 mg/kg; tumors resected 2, 8, 12 or 24 hours after administration
T1 construct: from tissue; host or cells: Subcutaneous TT tumour resected from nude mice (TT from ATCC, mice from Charles River)
Procedure: (§1) Human medullary thyroid carcinoma cell line (TT, purchased from ATCC) was cultured at 37° C. in RPMI1640 (containing 15% FBS) in a 5% carbon dioxide incubator to about 80% confluence, and cells were harvested with trypsin-EDTA according to a general method. The cells were suspended in a phosphate buffer to prepare 1×10^8 cells/mL suspension. 0.1 mL each of the resulting cell suspension was subcutaneously transplanted to a nude mouse at the side of its body (purchased from Charles River).
Tumors were resected 2, 8, 12 or 24 hours after administration, to which solubilizing buffer (50 mM Hepes (pH7.4), 150 mM NaCl, 10% (v/v) glycerol, 1% Triton X-100, 1.5 mM MgCl2, 1 mM EDTA (pH 8.0), 100 mM NaF, 1 mM PMSF, 10 μg/mL Aprotinin, 50 μg/mL Leupeptin, 1 μg/mL Pepstatin A, 1 mM Na3VO4), 25 mM β-glycerophosphate, and phosphatase inhibitor cocktail II (SIGMA)) were added and homogenized. Treatment at 15,000 rpm and 4° C. for 15 minutes and addition of SDS buffer to the supernatant were followed by treatment at 94° C. for 5 minutes to solubilize protein to 20 μg/10 μL to prepare cell extract. The cell extract was subjected to electrophoresis and immunoblotting in the same manner as in Example 2.

[1] = tested on: human medullary thyroid carcinoma cell line (TT); assay: Cell growth of human medullary thyroid carcinoma cell line (TT); assay type: cell-based; conditions: 240 h, TT cells, 10 days culture, read-out: inhibitory activity against cell growth (IC50)
Procedure: Human medullary thyroid carcinoma cell line (TT, purchased from ATCC) was suspended in RPMI1640 medium containing 15% FBS (purchased from Sigma). 0.1 mL per well of this cell suspension (3×10^4 cells/mL) was added to 96-well cell culture plate (purchased from NUNC), and cultured in a 5% CO2 incubator (37° C.) overnight. […] After cultivation, 10 μL of […] (purchased from DOJINDO) was added to each well, treated in 5% CO2 incubator (37° C.) for color development and absorbance of each well was determined with plate reader MTP-500 (Corona Electric) at measurement wavelength of 415 nm and reference wavelength of 660 nm. Percentage (%) of the absorbance of each well with the test substance was determined compared to the absorbance of well without the test substance, based on which concentration of the test substance required for inhibiting cell growth for 50% (IC50) was calculated.

[2] = tested on: human medullary thyroid carcinoma cell line (TT); assay: Antitumor effect in model for subcutaneous transplantation of human medullary thyroid carcinoma cell line (TT); assay type: in vivo, nude mouse; conditions: oral, 10, 30 or 100 mg/kg, once a day, four weeks
Procedure: as §1
The major and minor axes of tumors were measured with Digimatic caliper (Mitsutoyo), and tumor volumes were calculated according to the following formula. Tumor Volume (TV)=Major axis of tumor (mm)×(Minor axis of tumor)^2 (mm^2)/2

Erk1/2 = Erk1/2 phosphorylation in human medullary thyroid carcinoma cell line (TT), western blotting; assay type: cell-based; conditions: TT cells, 1 hour treatment
Procedure: Human medullary thyroid carcinoma cell line (TT, purchased from ATCC) was suspended in RPMI1640 medium containing 15% FBS (purchased from Sigma). TT is a cell expressing RET where cysteine at codon 634 in the wild-type RET amino acid sequence is mutated with tryptophan (Biochemical and Biophysical Research Communications, 207, 1022-1028, 1995). Two mL of this cell suspension per well (4×10^5 cells/mL) was added to 6-well cell culture plate (purchased from FALCON), and cultured in a 5% CO2 incubator (37° C.) overnight. After cultivation, supernatant was removed from each well and 1.8 mL of RPMI1640 medium containing 15% FBS was added. […] Supernatant was removed from each well, which was then washed with 400 μL of PBS, and added with 100 μL of solubilizing buffer (50 mM Hepes (pH7.4), 150 mM NaCl, 10% (v/v) glycerol, 1% Triton X-100, 1.5 mM MgCl2, 1 mM EDTA (pH 8.0), 100 mM NaF, 1 mM PMSF, 10 μg/mL, Aprotinin, 50 μg/mL Leupeptin, 1 μg/mL Pepstatin A and 1 mM Na3VO4). Cells in this solution were harvested with a scraper and treated at 15,000 rpm and 4° C. for 15 minutes. SDS buffer was added to the supernatant and subjected to treatment at 94° C. for 5 minutes to solubilize the protein, which was then prepared to 20 μg/10 μL as a cell extract. […]

[3] = tested on: human medullary thyroid carcinoma cell line (TT); conditions: Journal of the National Cancer Institute, 98, 326-334, 2006; cited from earlier work
[4] = tested on: NIH3T3 cells transformed with mutant RET; conditions: Cancer Research, 15, 7284-7290, 2002; cited from earlier work
[5] = tested on: NIH3T3 cells transformed with mutant RET; conditions: Cancer Research, 15, 7284-7290, 2002; cited from earlier work; remark: listed apart in the source

T1 sequence (P07949 29-1114 C634W): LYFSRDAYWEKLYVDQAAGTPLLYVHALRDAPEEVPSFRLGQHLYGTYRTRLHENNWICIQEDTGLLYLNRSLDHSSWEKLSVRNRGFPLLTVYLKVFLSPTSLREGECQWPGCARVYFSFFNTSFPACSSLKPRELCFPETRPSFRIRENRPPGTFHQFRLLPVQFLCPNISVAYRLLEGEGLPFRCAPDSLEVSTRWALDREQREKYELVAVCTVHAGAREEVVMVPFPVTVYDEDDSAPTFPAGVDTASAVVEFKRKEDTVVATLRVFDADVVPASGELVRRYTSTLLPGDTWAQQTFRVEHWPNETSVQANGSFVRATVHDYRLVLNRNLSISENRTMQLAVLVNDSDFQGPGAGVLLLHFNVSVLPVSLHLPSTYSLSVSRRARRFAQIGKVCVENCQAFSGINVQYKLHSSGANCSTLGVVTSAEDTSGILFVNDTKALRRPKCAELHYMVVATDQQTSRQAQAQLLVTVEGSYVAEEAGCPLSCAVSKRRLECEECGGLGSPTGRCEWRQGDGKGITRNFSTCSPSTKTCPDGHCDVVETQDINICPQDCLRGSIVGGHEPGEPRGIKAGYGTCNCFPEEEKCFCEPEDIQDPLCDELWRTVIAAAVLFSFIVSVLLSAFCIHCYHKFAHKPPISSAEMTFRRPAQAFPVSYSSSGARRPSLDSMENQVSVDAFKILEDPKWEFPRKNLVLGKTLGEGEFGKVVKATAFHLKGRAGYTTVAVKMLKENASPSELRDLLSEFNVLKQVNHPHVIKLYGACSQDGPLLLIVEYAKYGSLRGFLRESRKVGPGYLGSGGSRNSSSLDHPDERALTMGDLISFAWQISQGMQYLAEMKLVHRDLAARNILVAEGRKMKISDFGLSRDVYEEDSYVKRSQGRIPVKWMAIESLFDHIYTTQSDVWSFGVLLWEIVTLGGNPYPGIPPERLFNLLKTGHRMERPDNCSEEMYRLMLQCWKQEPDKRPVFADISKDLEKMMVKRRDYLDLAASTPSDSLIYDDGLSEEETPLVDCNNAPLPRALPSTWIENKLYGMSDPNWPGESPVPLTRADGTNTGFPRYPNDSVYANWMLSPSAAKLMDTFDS

For `COc1cc2nccc(Oc3ccc(NC(=O)NC4CC4)c(Cl)c3)c2cc1C(N)=O` [4-(3-chloro-4-(cyclopropylaminocarbonyl)aminophenoxy)-7-methoxy-6-quinolinecarboxamide], the “RET autophosphorylation inhibitory activity in tumor” value (RET) was “RET autophosphorylation inhibitory activity at the dose found to exert antitumor effect”, the IC50 [1] was 78 nM and the “antitumor effect (tumor volume)” value [2] was “dose-dependent antitumor effect”. The “inhibition of Erk1/2 phosphorylation” value (Erk1/2) was “at a concentration similar to that for RET kinase”.

In the case of `CNC(=O)c1cc(Oc2ccc(NC(=O)Nc3ccc(Cl)c(C(F)(F)F)c3)cc2)ccn1` [BAY 43-9006], the size of tumor [3] is listed as “reduce the size of tumor”.

In the case of `COc1cc2c(Nc3ccc(Br)cc3F)ncnc2cc1OCC1CCN(C)CC1` [ZD6474], the tumor formation [4] is given as “inhibited tumor formation” and the scaffold-independent proliferation [5] is given as “suppress scaffold-independent proliferation”.
